Results reported in the supplement of paper PMC4862054.

Key:
MDA-MB-231 [1] = test: normalised viability (% of control), CellTiter-Blue; higher = more viable cells (about 100 = DMSO control); conditions: incubation time: 72 h
Procedure: (§1)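 DSRT, CellTiter-Blue viability, 72 h incubation. Signal is normalised to DMSO and benzethonium chloride controls. Value is the normalised response at dose 3.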

Hs578T [2] = test: as above; conditions: incubation time: 72 h
Procedure: as §1

MDA-MB-453 [3] = test: as above; conditions: incubation time: 72 h
Procedure: as §1

MDA-MB-468 [4] = test: as above; conditions: incubation time: 72 h
Procedure: as §1

MFM-223 = test: as above; conditions: incubation time: 72 h
Procedure: as §1

CAL-148 [5] = test: as above; conditions: incubation time: 72 h
Procedure: as §1

BT-549 [6] = test: as above; conditions: incubation time: 72 h
Procedure: as §1

DU-4475 [7] = test: as above; conditions: incubation time: 72 h
Procedure: as §1

CAL-120 [8] = test: as above; conditions: incubation time: 72 h
Procedure: as §1

MDA-MB-453 [9] = test: as above; conditions: incubation time: 72 h; remark: listed apart in the source
Procedure: (§2)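 DSRT, CellTiter-Blue viability, 72 h incubation. Signal is normalised to DMSO and benzethonium chloride controls. Value is the normalised response at dose 6.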

HDQ-P1 [10] = test: as above; conditions: incubation time: 72 h
Procedure: as §2

CAL-148 [11] = test: as above; conditions: incubation time: 72 h; remark: listed apart in the source
Procedure: as §2

CAL-85-1 [12] = test: as above; conditions: incubation time: 72 h
Procedure: as §2

CAL-51 [13] = test: as above; conditions: incubation time: 72 h
Procedure: as §2

DU-4475 [14] = test: as above; conditions: incubation time: 72 h; remark: listed apart in the source
Procedure: as §2

MDA-MB-453 [15] = test: as above; conditions: incubation time: 72 h; remark: listed apart in the source
Procedure: (§3)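 DSRT, CellTiter-Blue viability, 72 h incubation. Signal is normalised to DMSO and benzethonium chloride controls. Value is the normalised response at dose 7.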

HDQ-P1 [16] = test: as above; conditions: incubation time: 72 h; remark: listed apart in the source
Procedure: as §3

CAL-148 [17] = test: as above; conditions: incubation time: 72 h; remark: listed apart in the source
Procedure: as §3

CAL-85-1 [18] = test: as above; conditions: incubation time: 72 h; remark: listed apart in the source
Procedure: as §3

CAL-51 [19] = test: as above; conditions: incubation time: 72 h; remark: listed apart in the source
Procedure: as §3

DU-4475 [20] = test: as above; conditions: incubation time: 72 h; remark: listed apart in the source
Procedure: as §3

MDA-MB-453 [21] = conditions: 72 h
Outline: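 Plates of 384 wells holding compound in 5 µl medium received breast cancer cell lines in 20 µl suspension and were incubated 72 h. CellTiter-Blue (2.5 µl, 2 h, 37 °C) was used for viability, read at 560/590 nm, and every plate was normalised to vehicle and a positive kill control and assessed by Z'-factor. The EC50 derives from a percent-inhibition dose-response curve fit censored at the highest concentration, leaving out rows whose drug sensitivity score was zero.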

MDA-MB-231 [22] = conditions: 72 h
Outline: (§4)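 Breast cancer cell lines (20 µl suspension) were seeded into 384-well plates holding compound at 5 concentrations in 10-fold steps over a compound-specific 10,000-fold range, then incubated 72 h. Cell death was read first by CellTox Green fluorescence (485/520 nm), then viability by CellTiter-Glo luminescence after 10 min at room temperature. Each plate was normalised to 0.1 % DMSO and a positive kill control. EC50 was fitted from the dose-response curves and censored at the top concentration.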

Hs578T [23] = conditions: 72 h
Outline: as §4

MDA-MB-436 = conditions: 72 h
Outline: as §4

MDA-MB-453 [24] = conditions: 72 h; remark: listed apart in the source
Outline: as §4

SK-BR-3 = conditions: 72 h
Outline: as §4

MDA-MB-468 [25] = conditions: 72 h
Outline: as §4

HCC1937 = conditions: 72 h
Outline: as §4

BT-549 [26] = conditions: 72 h
Outline: as §4

CAL-85-1 [27] = conditions: 72 h
Outline: as §4

CAL-51 [28] = conditions: 72 h
Outline: as §4

MCF-10A = conditions: 72 h
Outline: as §4

CAL-120 [29] = conditions: 72 h
Outline: as §4

BT-474 = conditions: 72 h
Outline: as §4

CC[C@]1(O)C[C@H]2CN(CCc3c([nH]c4ccccc34)[C@@](C(=O)OC)(c3cc4c(cc3OC)N(C=O)[C@H]3[C@@](O)(C(=O)OC)[C@H](OC(C)=O)[C@]5(CC)C=CCN6CC[C@]43[C@@H]65)C2)C1 [Vincristine]
Conditions | normalised viability [%]
BT-549 [6], 10 nM | 29.3
BT-549 [6], 100 nM | 25.2
CAL-51 [13], 30 nM | 42.3
CAL-51 [13], 300 nM | 12.6
CAL-51 [19], 100 nM | 27
CAL-51 [19], 1000 nM | 10.3
CAL-85-1 [12], 30 nM | 34.9
CAL-85-1 [12], 300 nM | 39.6
CAL-85-1 [18], 100 nM | 43.9
CAL-85-1 [18], 1000 nM | 34.7
CAL-120 [8], 10 nM | 22.9
CAL-120 [8], 100 nM | 20
CAL-148 [5], 1 nM | 91.3
CAL-148 [5], 10 nM | 90.2
CAL-148 [11], 30 nM | 16.5
CAL-148 [11], 300 nM | 24.5
CAL-148 [17], 100 nM | 16
CAL-148 [17], 1000 nM | 26
DU-4475 [7], 1 nM | 102
DU-4475 [7], 10 nM | 78.8
DU-4475 [14], 30 nM | 36.9
DU-4475 [14], 300 nM | 12
DU-4475 [20], 100 nM | 34.1
DU-4475 [20], 1000 nM | 8.18
HDQ-P1 [10], 30 nM | 33.5
HDQ-P1 [10], 300 nM | 27.9
HDQ-P1 [16], 100 nM | 36.1
HDQ-P1 [16], 1000 nM | 43.1
Hs578T [2], 10 nM | 16.6
Hs578T [2], 100 nM | 19.3
MDA-MB-231 [1], 10 nM | 29.5
MDA-MB-231 [1], 100 nM | 16.1
MDA-MB-453 [3], 1 nM | 103
MDA-MB-453 [3], 10 nM | 31.6
MDA-MB-453 [9], 30 nM | 29.2
MDA-MB-453 [9], 300 nM | 34.2
MDA-MB-453 [15], 100 nM | 34.3
MDA-MB-453 [15], 1000 nM | 36.4
MDA-MB-468 [4], 10 nM | 50.6
MDA-MB-468 [4], 100 nM | 32.1
MFM-223, 10 nM | 59.8
MFM-223, 100 nM | 39.5

Conditions | EC50, CellTiter-Blue viability [nM] | EC50, CellTiter-Glo [nM]
BT-474 | – | 7.55
BT-549 [26] | – | 1.71
CAL-51 [28] | – | 57.3
CAL-85-1 [27] | – | 2.7
CAL-120 [29] | – | 3.26
HCC1937 | – | 2.89
Hs578T [23] | – | 16.2
MCF-10A | – | 2.93
MDA-MB-231 [22] | – | 11.6
MDA-MB-436 | – | 11.6
MDA-MB-453 [21] | 3.57 | –
MDA-MB-453 [24] | – | 6.53
MDA-MB-468 [25] | – | 2.18
SK-BR-3 | – | 2.33

C/C(=C\c1csc(C)n1)[C@@H]1C[C@@H]2O[C@]2(C)CCC[C@H](C)[C@H](O)[C@@H](C)C(=O)C(C)(C)[C@@H](O)CC(=O)O1 [Patupilone]
Conditions | normalised viability [%]
BT-549 [6], 10 nM | 29.4
CAL-51 [13], 30 nM | 28.8
CAL-51 [19], 100 nM | 12.2
CAL-85-1 [12], 30 nM | 27.2
CAL-85-1 [18], 100 nM | 28.6
CAL-120 [8], 10 nM | 51.6
CAL-148 [5], 1 nM | 93.1
CAL-148 [11], 30 nM | 19.6
CAL-148 [17], 100 nM | 17.9
DU-4475 [7], 1 nM | 95.4
DU-4475 [14], 30 nM | 18.5
DU-4475 [20], 100 nM | 7.8
HDQ-P1 [10], 30 nM | 48.4
HDQ-P1 [16], 100 nM | 41.5
Hs578T [2], 10 nM | 36.7
MDA-MB-231 [1], 10 nM | 22.7
MDA-MB-453 [3], 1 nM | 88.7
MDA-MB-453 [9], 30 nM | 24.8
MDA-MB-453 [15], 100 nM | 20.4
MDA-MB-468 [4], 10 nM | 54.4
MFM-223, 10 nM | 81.3

Conditions | EC50, CellTiter-Blue viability [nM] | EC50, CellTiter-Glo [nM]
BT-474 | – | 219
BT-549 [26] | – | 9.09
CAL-51 [28] | – | 8.54
CAL-85-1 [27] | – | 18.9
CAL-120 [29] | – | 73.8
HCC1937 | – | > 1000
Hs578T [23] | – | 57.3
MCF-10A | – | 57.4
MDA-MB-231 [22] | – | 149
MDA-MB-436 | – | 14.9
MDA-MB-453 [21] | 4.4 | –
MDA-MB-453 [24] | – | 84.9
MDA-MB-468 [25] | – | 7.53
SK-BR-3 | – | 38.9
